Reference: patent US12364718B2, “Microbial compositions to increase the production of PCA from polyphenols” (priority 2020, dated 2025)

Columns and labels:
B. subtilis 1579 = experiment: National Antimicrobial Resistance Monitoring System (NARMS) panel screening, MIC in […] 96-well plate; format: cell-based, Bacillus subtilis; parameters: Minimum Inhibitory Concentrations (MIC), 1579a / Minimum Inhibitory Concentrations (MIC), 1579b: unit not given here; settings: for MIC interpretation (susceptible/intermediate/resistant), 1579a / Minimum Inhibitory Concentrations (MIC), 1579a: duplicate a; for MIC interpretation (susceptible/intermediate/resistant), 1579a / MIC interpretation (susceptible/intermediate/resistant), 1579b: CLSI M45 Bacillus spp. or NARMS Enterococcus breakpoints; for MIC interpretation (susceptible/intermediate/resistant), 1579b / Minimum Inhibitory Concentrations (MIC), 1579b: duplicate b; for Minimum Inhibitory Concentrations (MIC), 1579a / Minimum Inhibitory Concentrations (MIC), 1579b: Mueller-Hinton broth, 37° C., read at 18 hours
Description: Methods. […] A sterile swab was used to take a portion of the pellet and resuspended in sterile ddH2O tubes; a 0.5 McFarland standard was used to determine the optimal dilution. 15 microliters of the ddH2O was transferred into the 5 mL tubes of Mueller-Hinton broth and the mixture was vortexed and poured into a sterile boat. A p200 multi-channel pipette was used to transfer 50 microliters into each well of the […] 96-well microtiter plate (CMV3AGPF) plate (FIG. 3) and sealed. The plates were incubated at 37° C. overnight. The plates were removed at 18 hours and each well was given a result of either positive or negative depending on if there was any growth in the well.

[1] = test system: Bovine Aortic Endothelial Cells (BAEC); experiment: Inflammatory marker gene expression in LPS stimulated bovine endothelial cells (qPCR); format: cell-based; parameters: Cox-2 gene expression: dose or concentration left out as unconfirmed; settings: LPS stimulation, 6 hours, qPCR vs GAPDH
Description: To determine potential mode of action of PCA, in vitro studies were performed using Bovine Aortic Endothelial Cells (BAEC). Stress was induced in mammalian endothelial cells using a lipopolysaccharide (LPS) model, which causes an inflammatory response through inflammatory cytokine, NO and prostaglandin release. After 6 hours, cells were lysed and cellular RNA was recovered using Direct-zol RNA MiniPrep Plus kit (Zymo Research) following the manufacturer's instructions. RNA was converted to cDNA using the QuantiNova Reverse Transcription Kit (Qiagen). Gene expression was then quantified using the QuantiTect SYBR Green PCR kit with primers specific for inflammatory markers. Inducible nitric oxide expression was screened using primers iNOSF ([…], SEQ ID NO: 7) and iNOSR ([…], SEQ ID NO: 8), Cyclo-oxygenase 2 primers, COX2F ([…], SEQ ID NO: 9) and COX2R ([…], SEQ ID NO: 10), and Interleukin-6 primers IL6F ([…], SEQ ID NO: 11) and IL6R ([…], SEQ ID NO: 12) compared against the house keeping gene GAPDH, primers GAPDH-F ([…], SEQ ID NO: 13) and GAPDH-R ([…], SEQ ID NO: 14). Quantitative PCR reactions were set up in 20 μl volumes as per the manufacturer's recommendations (Qiagen). Thermocycler conditions started with a 15 min denaturation at 95° C. followed by 40 cycles of denaturation at 95° C. for 15 seconds, annealing at 60° C. for 30 seconds and extension at 60° C. for 30 seconds before a melt curve.

Molecule	MIC interpretation (susceptible/intermediate/resistant), 1579a (B. subtilis 1579)	MIC interpretation (susceptible/intermediate/resistant), 1579b (B. subtilis 1579)	IL-6 expression ([1]; 1 g/ml and 10 µg/ml PCA)	iNOS gene expression ([1]; 1 g/ml and 10 µg/ml PCA)	Cox-2 gene expression ([1]; PCA)	Minimum Inhibitory Concentrations (MIC), 1579a (B. subtilis 1579)	Minimum Inhibitory Concentrations (MIC), 1579b (B. subtilis 1579)
CCCCCCCCCC(=O)N[C@@H](Cc1c[nH]c2ccccc12)C(=O)N[C@H](CC(N)=O)C(=O)N[C@@H](CC(=O)O)C(=O)N[C@@H]1C(=O)NCC(=O)N[C@@H](CCCN)C(=O)N[C@@H](CC(=O)O)C(=O)N[C@H](C)C(=O)N[C@@H](CC(=O)O)C(=O)NCC(=O)N[C@H](CO)C(=O)N[C@@H]([C@H](C)CC(=O)O)C(=O)N[C@@H](CC(=O)c2ccccc2N)C(=O)O[C@@H]1C [Daptomycin]	S	S	–	–	–	–	–
O=C(O)c1ccc(O)c(O)c1 [PCA, protocatechuic acid]	–	–	dose dependently decreased	decreased	decreased	–	–
CN(C)c1cc(NC(=O)CNC(C)(C)C)c(O)c2c1C[C@H]1C[C@H]3[C@H](N(C)C)C(O)=C(C(N)=O)C(=O)[C@@]3(O)C(O)=C1C2=O [Tigercycline]	S	S	–	–	–	–	–
CN[C@H](CC(C)C)C(=O)N[C@H]1C(=O)N[C@@H](CC(N)=O)C(=O)N[C@H]2C(=O)N[C@H]3C(=O)N[C@H](C(=O)N[C@H](C(=O)O)c4cc(O)cc(O)c4-c4cc3ccc4O)[C@H](O)c3ccc(c(Cl)c3)Oc3cc2cc(c3O[C@@H]2O[C@H](CO)[C@@H](O)[C@H](O)[C@H]2O[C@H]2C[C@](C)(N)[C@H](O)[C@H](C)O2)Oc2ccc(cc2Cl)[C@H]1O [Vancomycin]	S	S	–	–	–	–	–
Gentamycin	S	S	–	–	–	128	128
Penicillin	S	S	–	–	–	1	0.5
Quinupristin/dalfopristin	–	–	–	–	–	4	32
